Results: PMC8954547, “Nonpeptidic Z360-Analogs Tagged with Trivalent Radiometals as Anti-CCK2R Cancer Theranostic Agents: A Preclinical Study” (Pharmaceutics, 2022)
Values joined by “and” are separate entries in the source; they are usually repeats but may differ in a detail not shown here. Identical values can stand only once.

Assays:
[1] = Radioligand stability in mice (radio-HPLC of blood and urine); assay type: in vivo; settings: mice blood collected 5 min pi; mean ± SD
Procedure, shortened: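 Male Swiss albino mice (n=3) given 2.5–3 nmol radioligand i.v. via tail vein in saline/EtOH 9/1. Blood at 5 min and urine at 30 min pi, EDTA-treated on ice, MeCN-deproteinised, analysed by radio-RP-HPLC; value is mean percent intact radioligand ± SD.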

[2] = tested on: HEK293-CCK2i4svR and wtHEK293 xenografts; assay: SPECT/CT of HEK293-CCK2i4svR and wtHEK293 xenografts; assay type: in vivo, mice; settings: 4 h and 24 h pi
Protocol: For SPECT/CT imaging, six mice bearing twin HEK293-CCK2i4svR and wtHEK293 tumors were injected in the tail vein with a bolus containing [^111In]In-GAS1/2/3 (100 μL, 9–12 MBq associated with 3 nmol total injected analog in-vehicle: saline/EtOH 9/1 v/v). Mice were euthanized at 4 h and 24 h pi. Tomographic SPECT/CT imaging was performed with the y-CUBE/x-CUBE systems (Molecubes, Belgium). The SPECT system is based on monolithic NaI detectors attached to SiPMs, with a 0.6 mm intrinsic resolution. The CT system is based on a structured CMOS detector of CsI with pixels of 75 µm and operates between 35–80 kVp, 10–500 µA tube current, with a 33 µm fixed focal spot size. SPECT scans were acquired 4 h pi and 24 h pi, with a 40–50 min duration protocol based on the injected activity, and each SPECT scan was succeeded by a CT scan, following General-Purpose protocol under 50 kVp, for co-registration purposes. SPECT images were reconstructed using the MLEM reconstruction method with a 250 µm voxel size and 500 iterations. CT images were reconstructed using the ISRA reconstruction method with a 100 µm voxel size.
Images were exported and post-processed on VivoQuant software, version 4.0 (Invicro, Boston). A smoothing median filter (0.6 mm, spherical window) was applied to the images, and the bladder was removed for consistency purposes. Normalization of images was performed (i.e., all images having the same color scale range values) to achieve a direct visual comparison between the different groups.

[3] = tested on: SCID mice bearing twin HEK293-CCK2i4svR and wtHEK293 tumors; assay: Biodistribution in SCID mice bearing twin HEK293-CCK2i4svR and wtHEK293 xenografts; assay type: in vivo
Procedure, shortened: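 Uptake is expressed as %IA/g (mean ± SD, n = 4) from gamma counting of blood, organs and tumours collected at set times: 1, 4 and 24 h pi for ^67Ga, 4 and 24 h for ^111In (±gelofusine), 4–96 h for ^177Lu. Radioligands were given iv at 7–40 pmol to SCID mice bearing twin CCK2i4svR-transfected and wild-type HEK293 xenografts.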

[4] = 4 h + Gelo (Gelofusine-treated mice)
[5] = 24 h + Gelo (Gelofusine-treated mice)

Question: What does the source list for `CC(C)(C)C(=O)CN1C(=O)[C@H](NC(=O)Nc2cccc(C(=O)NCCOCCOCCOCCNC(=O)[C@@H](CCC(=O)O)NC(=O)CCC(C(=O)[O-])N3CCN(CC(=O)[O-])CCN(CC(=O)[O-])CC3)c2)CN(C2CCCCC2)c2ccccc21.[111In+3]` (stereo partly drawn) [[^111In]In-GAS2]?
Answer: Intact radioligand in blood [1]: 73.1 ± 1.8% and 73.1 ± 1.8 (3) % and 98.3 ± 0.3 (3) %; SPECT/CT uptake in CCK2i4svR expressing tumors [2]: Intense uptake; SPECT/CT uptake in wtHEK293 tumors devoid of CCK2i4svR expression [2]: no uptake is evident; Biodistribution, Blood [3, 4]: 6.29 ± 1.08 %IA/g; Biodistribution, CCK2i4svR(+) Tumor [3, 4]: 7.67 ± 0.61 %IA/g; Biodistribution, CCK2i4svR(-) Tumor [3, 4]: 1.72 ± 0.30 %IA/g; Biodistribution, Femur [3, 4]: 0.99 ± 0.17 %IA/g; Biodistribution, Heart [3, 4]: 1.42 ± 0.21 %IA/g; Biodistribution, Intestines [3, 4]: 9.48 ± 0.99 %IA/g; Biodistribution, Kidneys [3, 4]: 21.90 ± 3.97 %IA/g; Biodistribution, Liver [3, 4]: 4.56 ± 0.49 %IA/g; Biodistribution, Muscle [3, 4]: 0.47 ± 0.04 %IA/g; Biodistribution, Pancreas [3, 4]: 3.00 ± 0.58 %IA/g; Biodistribution, Spleen [3, 4]: 1.32 ± 0.20 %IA/g; Biodistribution, Stomach [3, 4]: 0.94 ± 0.15 %IA/g; Biodistribution, Blood ([3]; 4 h pi): 6.40 ± 0.75 %IA/g; Biodistribution, CCK2i4svR(+) Tumor ([3]; 4 h pi): 8.91 ± 1.59 %IA/g; Biodistribution, CCK2i4svR(-) Tumor ([3]; 4 h pi): 1.82 ± 0.25 %IA/g; Biodistribution, Femur ([3]; 4 h pi): 1.15 ± 0.10 %IA/g; Biodistribution, Heart ([3]; 4 h pi): 1.61 ± 0.23 %IA/g; Biodistribution, Intestines ([3]; 4 h pi): 9.71 ± 0.42 %IA/g; Biodistribution, Kidneys ([3]; 4 h pi): 29.55 ± 3.64 %IA/g; Biodistribution, Liver ([3]; 4 h pi): 5.42 ± 0.89 %IA/g; Biodistribution, Lungs ([3]; 4 h pi): 3.27 ± 0.46 %IA/g; Biodistribution, Muscle ([3]; 4 h pi): 0.56 ± 0.08 %IA/g; Biodistribution, Pancreas ([3]; 4 h pi): 2.99 ± 0.96 %IA/g; Biodistribution, Spleen ([3]; 4 h pi): 1.49 ± 0.14 %IA/g; Biodistribution, Stomach ([3]; 4 h pi): 1.31 ± 0.21 %IA/g; Biodistribution, Blood [3, 5]: 0.15 ± 0.02 %IA/g; Biodistribution, CCK2i4svR(+) Tumor [3, 5]: 2.92 ± 0.37 %IA/g; Biodistribution, CCK2i4svR(-) Tumor [3, 5]: 0.45 ± 0.09 %IA/g; Biodistribution, Femur [3, 5]: 0.25 ± 0.03 %IA/g; Biodistribution, Heart [3, 5]: 0.22 ± 0.03 %IA/g; Biodistribution, Intestines [3, 5]: 0.75 ± 0.06 %IA/g; Biodistribution, Kidneys [3, 5]: 11.51 ± 2.64 %IA/g; Biodistribution, Liver [3, 5]: 0.95 ± 0.12 %IA/g; Biodistribution, Lungs [3, 5]: 0.44 ± 0.07 %IA/g; Biodistribution, Muscle [3, 5]: 0.08± 0.01 %IA/g; Biodistribution, Pancreas [3, 5]: 0.30 ± 0.05 %IA/g; Biodistribution, Spleen [3, 5]: 0.56 ± 0.17 %IA/g; Biodistribution, Stomach [3, 5]: 0.35 ± 0.06 %IA/g; Biodistribution, Blood ([3]; 24 h pi): 0.13 ± 0.02 %IA/g; Biodistribution, CCK2i4svR(+) Tumor ([3]; 24 h pi): 2.78 ± 0.43 %IA/g; Biodistribution, CCK2i4svR(-) Tumor ([3]; 24 h pi): 0.41 ± 0.10 %IA/g; Biodistribution, Femur ([3]; 24 h pi): 0.24 ± 0.04 %IA/g; Biodistribution, Heart ([3]; 24 h pi): 0.22 ± 0.01 %IA/g; Biodistribution, Intestines ([3]; 24 h pi): 0.68 ± 0.15 %IA/g; Biodistribution, Kidneys ([3]; 24 h pi): 10.16 ± 2.30 %IA/g; Biodistribution, Liver ([3]; 24 h pi): 0.96 ± 0.22 %IA/g; Biodistribution, Lungs ([3]; 24 h pi): 0.60 ± 0.37 %IA/g; Biodistribution, Muscle ([3]; 24 h pi): 0.08 ± 0.01 %IA/g; Biodistribution, Pancreas ([3]; 24 h pi): 0.29 ± 0.03 %IA/g; Biodistribution, Spleen ([3]; 24 h pi): 0.51 ± 0.09 %IA/g; Biodistribution, Stomach ([3]; 24 h pi): 0.36 ± 0.14 %IA/g
